Experiment [1] has as its system PBMC from HIV seropositive subjects. Nature of the experiment: Intracellular cAMP in PBMC from HIV seropositive subjects. The experiment is classed as cell-based, human. The note with it: 10 ng/ml for 10 min; decreased from 5.3. The protocol: The compound 2′,5′ dideoxyadenosine (ddAdo) inhibits adenylate cyclase, the enzyme responsible for the generation of cAMP, by competition for the “P”-binding site (Johnson, J Biochem (1990) 265:11595-11600). […] In one such experiment (FIG. 9A), the intracellular cAMP level decreased to normal levels within 4 hours and remained at this level when tested after 20 hours. The effect of ddAdo was compared with two other adenylate cyclase inhibitors which are naturally occurring adenosine phosphates. When used in equal concentrations, the three inhibitors gave similar reductions in intracellular CAMP levels. For example, when added in 10 ng/ml for 10 min, ddAdo decreased the CAMP levels from 5.3 pmol/10^6 PBMC to 3.6; 3′ AMP to 3.5; and 2′,3′deoxy-AMP reduced the level to 3.2 pmol/10^6 PBMC.
cAMP was determined using a commercial scintillation proximity RIA (Amersham, Arlington Heights, Ill.) following the manufacturer's protocol. PKA activity was determined using a kit from Gibco (Grand Island, N.Y.) and the manufacturer's protocol. For the cAMP assay, cells were lysed and sonicated in assay buffer (provided with the kits). Proliferative assays were performed as described above.
Further purification was achieved by reverse phase chromatography. 3 ml of above solution was applied on C18 Sep-Pak cartridge (Waters) equilibrated with water+0.1% TFA. The column was washed with H2O-TFA until absorbance at 280nm reached baseline. Bound material was eluted from the column by stepwise elution with H2O-acetonitrile-TFA mixtures. There were three peaks on elution curve at 20%, 40% and 70% acetonitrile. The effluent from the above step was rechromatographed again on C18 cartridge and yielded additional quantities of the three products. […] Fraction 2 was added in various PBS dilutions to lymphocytes from HIV seropositive subjects. cAMP was then measured on lysates of these cells after 1 hour.

In a further experiment the test system is membrane PKC activity. The experiment in a line: Membrane PKC activity in PBMC. The experiment is classed as cell-based, human. The protocol: The reagents were obtained as a kit from Gibco (Grand island, N.Y.) and the manufacturer's protocol was followed. After activation, cell membrane fractions were then obtained by ultracentrifugation (100,000 g for one hour at 4° C.) of sonicated cell lysates without detergent. Membrane fractions were then sonicated in the presence of 0.05% Triton X and the specific PKC activities were determined. Specific PKC activity was determined as the difference between phosphorylation of a PKC specific substrate with and without a specific PKC inhibitor present. The specific PKC substrate was a synthetic peptide from myelin basic protein with an acetylated N-terminal glutamine. The specific PKC inhibitor was a pseudo-substrate peptide which specifically binds to the pseudo-substrate region of the regulatory domain of PKC. The reaction mixture was spotted on cellulose paper, non-bound ^32P-ATP was removed by washing, and the paper discs were counted in a β counter after addition of scintillation fluid. The amounts of lysate over which the assay was linear were determined in initial experiments. All experiments were repeated 2-5 times.

Another experiment concerns normal PBMC. The experiment in a line: PHA-induced proliferation of normal PBMC, 3H-thymidine uptake. The class given is cell-based, human. To be noted: for ^3H-Thy. Incorp.: PHA alone 254.2 ± 9.0. The method, then:
Peripheral blood mononuclear cells (PBMC) from healthy blood donors were isolated by Lymphoprep (Nyegaard and Co., Oslo, Norway) density gradient centrifugation. Cell cultures were prepared in Eppendorf tubes and contained 5-10×10^6 cells/ml for phosphotyrosine experiments and 2-5×10^6 cells/ml for the kinase experiments and the cAMP determinations described below. The concentration of PHA added per tube was 10 μg/ml of PHA-P (Wellcome, Beckenham, England). Phorbol 12 myristate-13 acetate (PMA) (P-8139, Sigma, St. Louis, Mo.) was dissolved in dimethylsulfoxide (DMSO) and used in optimal concentrations of 200 ng/ml. The total volume per tube was 1 ml.
(§1) Proliferative assays were performed as previously described (see, for example, Hofmann, B., et al., Cell Immunol (1989) 121:336-48. Briefly, one microcurie ^3H-thymidine was added to cultures 72 hours after stimulation, and after further 24 hours, all cultures were harvested on glass fiber filters with an automatic harvesting machine (Skatron, Lierbyen, Norway), and the incorporated radioactivity was measured in a liquid scintillation counter (Beckman LS 1800) after an addition of 1.5 ml scintillation fluid.
The concentration of Cholera toxoid was 10-0.2 μg/ml and 8-bromoadenosine 3′,5′ cyclic monophosphate (Br-cAMP) was 40-0.2 μg/ml. […] The PTK inhibitor Tyrphostin 25 (Bimol, Plymouth, Pa.) was used in a concentration of 1.0 μg/ml. Tyrphostin 25 has more than 30 fold higher affinity for PTK than for PKC and PKA. HIV components were added to final dilutions of 108-360 μg p24 antigen/mi.
Both Cholera toxoid or Br-cAMP impaired PHA-induced cell proliferation as measured by ^3H-thymidine uptake after 3 days of culture (Table 1). The 50% impairment of proliferation induced by HIV components is similar to the 50% impairment induced by 0.63 μg/ml of Cholera toxoid or […] of Br-cAMP. The experiment confirmed that cAMP impairs PHA-induced proliferation of T lymphocytes.

A further experiment deals with PKA (Homo sapiens, UniProt P17612). The note with it: cited from earlier work.
The test system of experiment [2] is PBMC from an HIV seropositive subject. The experiment in a line: Proliferative response to PHA of PBMC from HIV seropositive subjects. The experiment is classed as cell-based, human. The method, then: as §1
The test system of the next experiment is PTK. The note with it: cited from earlier work.
The mark [3] stands for this setting: cells not stimulated (control), without inhibitor 1.3 ± 0.2.
[4] abbreviates: cells stimulated by HIV, without inhibitor 3.0 ± 0.2.
Setting [5] is: cells stimulated by PHA, without inhibitor 4.2 ± 1.6.

The molecule 2′,3′deoxy-AMP yielded a cAMP levels in experiment [1] of 3.2 pmol/10^6 PBMC.
The same measure, in the same setting: the figure for `Nc1ncnc2c1ncn2[C@@H]1O[C@H](CO)[C@@H](OP(=O)(O)O)[C@H]1O` [3′ AMP] is 3.5 pmol/10^6 PBMC.
For `Nc1ncnc2c1nc(Br)n2[C@@H]1O[C@@H]2COP(=O)(O)O[C@H]2[C@H]1O` [Br-cAMP, 8-bromoadenosine 3′,5′ cyclic monophosphate], the PKC membrane activity in the experiment with membrane PKC activity (setting [3]) is given as 3.9 ± 1.7 nM of ^32P/minute/10^6 PBMC; in the experiment on membrane PKC activity (setting [4]), 2.2 ± 1.5 nM of ^32P/minute/10^6 PBMC; in the experiment on membrane PKC activity (setting [5]) it was 2.1 ± 1.6 nM of ^32P/minute/10^6 PBMC. The “Concentration inducing 50% impairment of PHA-induced proliferation” value with normal PBMC (3 days of culture) turned out to be 200 µg/mL. The entries for the “Activity, percentage of activity of PHA control” value in the experiment on normal PBMC (PHA + 100 μg/ml), in the experiment with normal PBMC (PHA + 200 μg/ml) and in the experiment on normal PBMC (PHA + 400 μg/ml) were 66%, 38% and 16%, respectively. Further, the “^3H-Thy. Incorp.” value was found to be 168.7 ± 21.9 cpm ×10^−6 with normal PBMC (PHA + 100 μg/ml), 96.3 ± 14.4 cpm ×10^−6 in the experiment on normal PBMC (PHA + 200 μg/ml) and 41.6 ± 2.1 cpm ×10^−6 in the experiment with normal PBMC (PHA + 400 μg/ml).
As for `O=S(=O)(NCCNC/C=C/c1ccc(Br)cc1)c1cccc2cnccc12` [H-89], on PKA, the “Fold higher affinity for PKA than for PKC” value is 660 fold. Also, the “Proliferative response to PHA” value in experiment [2] is reported as “enhance proliferation”. The results for the PKC membrane activity in the experiment with membrane PKC activity (setting [3]), in the experiment with membrane PKC activity (setting [4]) and in the experiment on membrane PKC activity (setting [5]) were 6.0 ± 1.9 nM of ^32P/minute/10^6 PBMC, 12.9 ± 4.7 nM of ^32P/minute/10^6 PBMC and 9.4 ± 5.5 nM of ^32P/minute/10^6 PBMC, respectively.
Consider `N#CC(C#N)=Cc1ccc(O)c(O)c1` [T-23], for which the “Proliferative response to PHA” value in experiment [2] was “enhance proliferation”.
Take `N#CC(C#N)=Cc1cc(O)c(O)c(O)c1` [Tyrophostin-25]: in the experiment with PTK, the “Fold higher affinity for PTK than for PKC and PKA” value was “more than 30 fold”. The PKC membrane activity in the experiment on membrane PKC activity (setting [3]) is 2.0 ± 0.9 nM of ^32P/minute/10^6 PBMC; with membrane PKC activity (setting [4]) it was 4.6 ± 0.0 nM of ^32P/minute/10^6 PBMC; with membrane PKC activity (setting [5]) it was 7.7 ± 7.7 nM of ^32P/minute/10^6 PBMC.

Values taken from patent publication US6429208B1, “Methods and compositions for restoring impaired cellular immune function” (Regents of the University of California, priority 1992, dated 2002).
